Data from patent publication US7067486B2, “Acetylcholinesterase-derived peptides and uses thereof” (priority 1999, dated 2006).

Legend:
CD34^+ cells [1] = experiment: BrdU incorporation into CD34+ cells (cell proliferation); assay type: cell-based, human; settings: peptide 2 nM, cord blood CD34+ cells
Excerpt: Cell Source: UCB was collected, following informed consent of the parents and with the approval of the Sourasky Medical Center Ethics Committee, as previously described [Grisaru et al. (1999a) Am. J. Obstet. Gynecol, 180, 1240–1243]. Following 1:1 (v/v) dilution in Iscove's modified Dulbecco medium (IMDM, Beit Haemek, Israel), mononuclear cells were separated using 3% gelatin (Difco, Detroit, Mich.) and Ficoll-Hypaque gradients (<1.077 g/ml; Pharmacia, Uppsala, Sweden) [Pick et al. (1998) Br. J. Haematol. 103, 639–50]. CD34^+ cells were enriched using CD34 immunoglobulin-coated magnetic beads (CD34 progenitor cell selection system, Dynal, Norway).CD34^+ cells analysis was performed by flow cytometry (Becton Dickinson Immunocytochemistry System Inc., San Jose, Calif.), using CD34-PE (Becton Dickinson Immunocytometry System, Inc.) and CD45-FITC (Dako, Glostrup, Denmark) monoclonal antibodies. […] Liquid Cultures: UCB CD34^+ cells were set for liquid cultures at a concentration of 10^5/mL in IMDM, containing 10% autologous plasma, 2 mM L-glutamine (Sigma Chemical Co., St Louis, Mo.), penicillin ([…]), streptomycin ([…]), amphotericin B (2×10^−5 M) (Sigma Chemical Co.), and heparin (20 IU/mL, Gibco, Grand Island, N.Y.), all in a fully humidified atmosphere at 37° C. and 5% CO2. The following elements were added where noted: • 1. Hematopoietic growth factors: Interleukin 3 (IL3, 5 ng/mL, Immunex, Seattle, Wash.), interleukin 6 (IL6, 50 ng/mL, R&D Systems, Minneapolis, Minn.), TPO (1 ng/mL, R&D Systems), stem cell factor (SCF, 10 ng/mL, R&D Systems), FLT-3 ligand (FLT3, 50 ng/mL, R&D Systems), granulocyte-macrophage colony stimulating factor (GM-CSF, 50 ng/mL, Biogenesis Ltd, Bournemouth, UK) and combinations of the above, for 24 hr to 28 days (supplemented every 4 days). • 2. […] AChE C-terminal peptides: The following C-terminal peptides of the AChE synaptic (ASP, also denoted SEQ ID: No. 2) and readthrough (ARP, also denoted SEQ ID: No. 1) isoforms were synthesized using a 433A peptide synthesizer (PE Applied Biosystems, Inc., Norwalk, Conn.). • ASP: 1-[…]-40, also denoted as SEQ ID: No. 2. • ARP: 1-[…]-26, also denoted as SEQ ID: No. 1.
[…] Twenty-eight day liquid cultures were sampled every 6–8 days for viable cell counting (using trypan blue dye exclusion), cell phenotyping (CD34^+, CD33^+ and CD41^+ quantification using flow cytometry, with CD34-PE, CD33-FITC (Immunotech/Coulter, Hialeah, Fla.), CD41-FITC (Immunoquality Products, Groningen, Netherlands) and CD45-FITC monoclonal antibodies), and growth of progenitor colony (granulocyte-macrophage and megakaryocytic), using previously described techniques (Pick et al. (1998) id ibid.). […]

CD34^+ cells [2] = experiment: Viable cell expansion in CD34+ liquid cultures (trypan blue exclusion); assay type: cell-based, human
Excerpt: Cell Source: UCB was collected, following informed consent of the parents and with the approval of the Sourasky Medical Center Ethics Committee, as previously described [Grisaru et al. (1999a) Am. J. Obstet. Gynecol, 180, 1240–1243]. Following 1:1 (v/v) dilution in Iscove's modified Dulbecco medium (IMDM, Beit Haemek, Israel), mononuclear cells were separated using 3% gelatin (Difco, Detroit, Mich.) and Ficoll-Hypaque gradients (<1.077 g/ml; Pharmacia, Uppsala, Sweden) [Pick et al. (1998) Br. J. Haematol. 103, 639–50]. CD34^+ cells were enriched using CD34 immunoglobulin-coated magnetic beads (CD34 progenitor cell selection system, Dynal, Norway).CD34^+ cells analysis was performed by flow cytometry (Becton Dickinson Immunocytochemistry System Inc., San Jose, Calif.), using CD34-PE (Becton Dickinson Immunocytometry System, Inc.) and CD45-FITC (Dako, Glostrup, Denmark) monoclonal antibodies. […] Liquid Cultures: UCB CD34^+ cells were set for liquid cultures at a concentration of 10^5/mL in IMDM, containing 10% autologous plasma, 2 mM L-glutamine (Sigma Chemical Co., St Louis, Mo.), penicillin ([…]), streptomycin ([…]), amphotericin B (2×10^−5 M) (Sigma Chemical Co.), and heparin (20 IU/mL, Gibco, Grand Island, N.Y.), all in a fully humidified atmosphere at 37° C. and 5% CO2. The following elements were added where noted: • 1. Hematopoietic growth factors: Interleukin 3 (IL3, 5 ng/mL, Immunex, Seattle, Wash.), interleukin 6 (IL6, 50 ng/mL, R&D Systems, Minneapolis, Minn.), TPO (1 ng/mL, R&D Systems), stem cell factor (SCF, 10 ng/mL, R&D Systems), FLT-3 ligand (FLT3, 50 ng/mL, R&D Systems), granulocyte-macrophage colony stimulating factor (GM-CSF, 50 ng/mL, Biogenesis Ltd, Bournemouth, UK) and combinations of the above, for 24 hr to 28 days (supplemented every 4 days). • 2. Endothlial Growth factors: Epidermal growth factor (EGF 10 ng/ml, Sigma Chemical Co.), basic Fibroblast growth factor (bFGF 20 ng/ml, Sigma Chemical Co.) incubated in a serum free medium (SFM) for 48 hr. • 3. […] AChE C-terminal peptides: The following C-terminal peptides of the AChE synaptic (ASP, also denoted SEQ ID: No. 2) and readthrough (ARP, also denoted SEQ ID: No. 1) isoforms were synthesized using a 433A peptide synthesizer (PE Applied Biosystems, Inc., Norwalk, Conn.). • ASP: 1-[…]-40, also denoted as SEQ ID: No. 2. • ARP: 1-[…]-26, also denoted as SEQ ID: No. 1. […]

## ASP (DTLDEAERQWKAEFHRWSSYMVHWKNQFDHYSKQDRCSDL)
CD34^+ cells [1]; 16 hrs post-plating
  BrdU incorporation values: 0.095 ± 0.004
CD34^+ cells [1]; 24 hrs post-plating
  BrdU incorporation values: 0.182 ± 0.018
CD34^+ cells [1]; 36 hrs post-plating
  BrdU incorporation values: 0.260 ± 0.022
CD34^+ cells [2]; day 14, seeded at 50,000 cells/well, ARP 2 nM, cortisol 1.2 μM, ASP 2 nM, SCF 50 ng/ml, AS1 20 pM, PBAN 2 nM
  Total viable cells: 100.0 cells per culture × 10^−3
CD34^+ cells [2]; similar doses, alone or with cytokines, 2 weeks
  promotion of cell expansion compared with ARP: less effective than ARP
